Experimental data: patent publication US20250290117A1, “MOLECULAR PHENOTYPIC ANTIMICROBIAL SUSCEPTIBILITY TESTING” (priority 2024, published 2025)

What was measured:
Format in all cases: cell-based
pathogen of the specimen = assay: Traditional culture-based antimicrobial susceptibility test (comparison of Table 7); details: E. coli isolate 1189
Method: Table 7 illustrates the results of an example antimicrobial agent susceptibility test of the current application versus a traditional culture-based antimicrobial agent susceptibility test at multiple incubation timepoints, in accordance with one or more embodiments of the disclosure. These specimens were tested with direct PCR (e.g., no extraction DNA purification step prior to PCR). […] Result Reporting to Healthcare Providers. The results from the antimicrobial exposure are reported to the ordering healthcare provider. This information can be utilized by the healthcare provider when selecting an antimicrobial regimen for their individual patient based on these individual specimen results and patient specific factors. […] The current standard of care for antimicrobial susceptibility testing involves the growth, isolation, and exposure of pathogens to antimicrobials. This traditional culture and sensitivity process can take multiple days to obtain results, limiting the ability of healthcare providers to receive timely results to make actionable changes in patient care or management. Healthcare providers desire a method to obtain antimicrobial susceptibility results with quicker turn-around-time. This application discloses a molecular-based phenotypic antimicrobial susceptibility method which involves pathogen exposure to a panel of antimicrobial agents at their specified minimum inhibitory concentration breakpoints for sensitivity. This method allows for more timely antimicrobial susceptibility results.

Acinetobacter baumannii = assay: Molecular phenotypic antimicrobial susceptibility test (extraction/DNA purification prior to PCR)
Method: Detection of Molecular Phenotypic Antimicrobial Susceptibility. Disclosed herein are the methods for the detection of phenotypic antimicrobial susceptibility via molecular methods. The present invention describes how a specimen 100 with a known microbial load is incubated and then exposed to a panel of antimicrobial agents to determine sensitivity (prevention of growth) or resistance (allowance of growth) to the specific antimicrobial agents tested utilizing molecular methods. Sample Collection. Specimens 100 are collected from patients using sterile collection processes that are employed in routine clinical care. Specimens are transported to the testing facility in boric acid preservative. […] The specimens 100 are put through a pathogen identification process using PCR technology (e.g., using the first sample 104). The process for pathogen isolation includes steps of harvesting the pathogen (e.g., via centrifugation), isolating pathogen DNA via a DNA isolation and/or purification kit, and performing PCR on the pathogen DNA via PCR components (e.g., primers, enzymes, buffers) as would be known to the skilled artisan. Simultaneously, an additional aliquot of the same specimen (e.g., the second sample 108) is placed with liquid culture media and incubated for 4-6 hours. This aliquot is used for antimicrobial susceptibility testing if indicated based on the pathogen detection results. […] Specimens 100 with lower pathogen loads could also be utilized in the antibiotic susceptibility phase of testing with or without a longer incubation period. […] Antimicrobial solutions are prepared at known concentrations. The specific antimicrobials and their concentrations are selected based on the pathogen of interest and the described antimicrobial resistance breakpoints for that specimen pathogen and antimicrobial combination. These antimicrobials have been selected based on those commonly utilized by healthcare providers in routine clinical care for the specific type of suspected infection. The number and types of antimicrobials utilized can be customized based on the infection source, pathogen detected, patient-specific factors such as allergies or other health conditions (e.g., chronic kidney disease or concurrent medication use), or healthcare provider preferences such as antimicrobial availability or cost. The antimicrobial solutions are prepared in liquid culture media (such as Muller Hinton Broth) to achieve the desired antimicrobial concentration and are then stored at −80° C. until use. For a given specimen, each antimicrobial is tested at a single or multiple antimicrobial concentration(s) which is its established breakpoints for sensitivity. The antimicrobial solutions are prepared and plated out for each specific pathogen. This allows ease of use on the day of testing after defrosting the plate 112. Table 1, which illustrates the results of molecular phenotypic antimicrobial susceptibility testing when more than one organism is present in the source specimen, provides an example of an antimicrobial plate 112 prepared for this purpose. Of note, control wells containing only culture media are present on all plates 112. This allows for evaluation of pathogen load when no antimicrobial is present. Specimen Exposure to Antimicrobial Agents. The 1 mL aliquot of the specimen 100 previously mixed with culture media and incubated is obtained. Using optical density measurements as a guide, the specimen 100 is diluted to 0.5 McFarland. The specimen 100 is then placed into the previously prepared antimicrobial susceptibility testing plate 112. Each plate 112 is prepared for a single specimen 100 for a specified pathogen based on its detection. For example, if the specimen 100 has more than one pathogen detected that needs different antimicrobial concentrations for exposure due to different minimum inhibitory concentration breakpoints for one or more organisms, then more than one antimicrobial exposure plate 112 may be needed. […]

[1] = tested on: Staphylococcus epidermidis; assay: Traditional culture-based antimicrobial susceptibility test
Source text: Table 1 illustrates the results of an example antimicrobial agent susceptibility test of the current application versus a traditional culture-based antimicrobial agent susceptibility test for Staphylococcus epidermidis. This specimen underwent extraction or DNA purification prior to PCR. The results of the test of the current application are similar to the results from the traditional test, with the results from the test of the current application being reportable considerably earlier than the test of the traditional test due no pathogen isolation requirement and due to less incubation time being required for the test of the current application. Result Reporting to Healthcare Providers. The results from the antimicrobial exposure are reported to the ordering healthcare provider. This information can be utilized by the healthcare provider when selecting an antimicrobial regimen for their individual patient based on these individual specimen results and patient specific factors. […] The current standard of care for antimicrobial susceptibility testing involves the growth, isolation, and exposure of pathogens to antimicrobials. This traditional culture and sensitivity process can take multiple days to obtain results, limiting the ability of healthcare providers to receive timely results to make actionable changes in patient care or management. Healthcare providers desire a method to obtain antimicrobial susceptibility results with quicker turn-around-time. This application discloses a molecular-based phenotypic antimicrobial susceptibility method which involves pathogen exposure to a panel of antimicrobial agents at their specified minimum inhibitory concentration breakpoints for sensitivity. This method allows for more timely antimicrobial susceptibility results.

[2] = A. baumannii isolate 1, Ct at control (average) 18.811
[3] = A. baumannii isolate 1, at sensitive breakpoint
[4] = A. baumannii isolate 2, Ct at control (average) 18.763
[5] = A. baumannii isolate 2, at sensitive breakpoint
[6] = A. baumannii isolate 3, Ct at control (average) 18.799
[7] = A. baumannii isolate 3, at sensitive breakpoint
[8] = A. baumannii isolate 4, Ct at control (average) 18.061
[9] = A. baumannii isolate 4, at sensitive breakpoint
[10] = A. baumannii isolate 5, Ct at control (average) 18.191
[11] = A. baumannii isolate 5, at sensitive breakpoint

Molecule | Traditional Culture Result (pathogen of the specimen) | Ct at Sensitive Breakpoint (Acinetobacter baumannii; [2]) | Molecular Antimicrobial Susceptibility Result (Acinetobacter baumannii; [3]) | Ct at Sensitive Breakpoint (Acinetobacter baumannii; [4]) | Molecular Antimicrobial Susceptibility Result (Acinetobacter baumannii; [5]) | Ct at Sensitive Breakpoint (Acinetobacter baumannii; [6]) | Molecular Antimicrobial Susceptibility Result (Acinetobacter baumannii; [7]) | Ct at Sensitive Breakpoint (Acinetobacter baumannii; [8]) | Molecular Antimicrobial Susceptibility Result (Acinetobacter baumannii; [9]) | Ct at Sensitive Breakpoint (Acinetobacter baumannii; [10]) | Molecular Antimicrobial Susceptibility Result (Acinetobacter baumannii; [11]) | Traditional Culture Result ([1]; S. epidermidis isolate 1) | Traditional Culture Result ([1]; S. epidermidis isolate 2) | Traditional Culture Result ([1]; S. epidermidis isolate 3) | Traditional Culture Result ([1]; S. epidermidis isolate 4) | Traditional Culture Result ([1]; S. epidermidis isolate 5)
CC1(C)S[C@@H]2[C@H](NC(=O)[C@H](N)c3ccccc3)C(=O)N2[C@H]1C(=O)O [Ampicillin] | Resistant | – | – | – | – | – | – | – | – | – | – | – | – | – | – | –
Cc1nnc(SCC2=C(C(=O)O)N3C(=O)[C@@H](NC(=O)Cn4cnnn4)[C@H]3SC2)s1 [Cefazolin] | Resistant | – | – | – | – | – | – | – | – | – | – | – | – | – | – | –
CO[C@@]1(NC(=O)Cc2cccs2)C(=O)N2C(C(=O)O)=C(COC(N)=O)CS[C@@H]21 [Cefoxitin] | Resistant | – | – | – | – | – | – | – | – | – | – | – | – | – | – | –
CO/N=C(\C(=O)N[C@@H]1C(=O)N2C(C(=O)O)=C(CSc3nc(=O)c(=O)[nH]n3C)CS[C@H]12)c1csc(N)n1 [Ceftriaxone] | Resistant | 16.497 | Resistant | 19.075 | Resistant | 19.667 | Resistant | 18.774 | Resistant | 18.571 | Resistant | – | – | – | – | –
O=C(O)c1cn(C2CC2)c2cc(N3CCNCC3)c(F)cc2c1=O [Ciprofloxacin] | Sensitive | 16.306 | Resistant | 19.471 | Resistant | 17.802 | Resistant | 18.101 | Resistant | 18.773 | Resistant | – | – | – | – | –
C[C@H]1COc2c(N3CCN(C)CC3)c(F)cc3c(=O)c(C(=O)O)cn1c23 [Levofloxacin] | – | 17.268 | Resistant | 19.405 | Resistant | 18.253 | Resistant | 18.709 | Resistant | 19.052 | Resistant | – | – | – | – | –
C[C@@H](O)[C@H]1C(=O)N2C(C(=O)O)=C(S[C@@H]3CN[C@H](C(=O)N(C)C)C3)[C@H](C)[C@H]12 [Meropenem] | Sensitive | 18.123 | Resistant | 19.761 | Resistant | 18.077 | Resistant | 17.553 | Resistant | 20.173 | Resistant | – | – | – | – | –
CN[C@H](CC(C)C)C(=O)N[C@H]1C(=O)N[C@@H](CC(N)=O)C(=O)N[C@H]2C(=O)N[C@H]3C(=O)N[C@H](C(=O)N[C@H](C(=O)O)c4cc(O)cc(O)c4-c4cc3ccc4O)[C@H](O)c3ccc(c(Cl)c3)Oc3cc2cc(c3O[C@@H]2O[C@H](CO)[C@@H](O)[C@H](O)[C@H]2O[C@H]2C[C@](C)(N)[C@H](O)[C@H](C)O2)Oc2ccc(cc2Cl)[C@H]1O [Vancomycin] | – | – | – | – | – | – | – | – | – | – | – | Sensitive | Sensitive | Sensitive | Sensitive | Sensitive
Ampicillin/Sulbactam | – | – | – | – | – | – | – | 19.447 | Sensitive (Antimicrobial wells with pathogen load detected below the control wells (typically >2 cycle thresholds later) may be reported as Sensitive) | 19.682 | Sensitive (Antimicrobial wells with pathogen load detected below the control wells (typically >2 cycle thresholds later) may be reported as Sensitive) | – | – | – | – | –
